The values below come from US20200165257A1, “INHIBITORS OF PHOSPHOINOSITIDE 3-KINASE AND HISTONE DEACETYLASE FOR TREATMENT OF CANCER” (THE UNITED STATES OF AMERICA, AS REPRESENTED BY THE …, priority 2017, published 2020).

Format in all cases: biochemical
One test concerns the target T1, HDAC6 (Homo sapiens, UniProt Q9UBN7).
T1 sequence (Q9UBN7 1-1215): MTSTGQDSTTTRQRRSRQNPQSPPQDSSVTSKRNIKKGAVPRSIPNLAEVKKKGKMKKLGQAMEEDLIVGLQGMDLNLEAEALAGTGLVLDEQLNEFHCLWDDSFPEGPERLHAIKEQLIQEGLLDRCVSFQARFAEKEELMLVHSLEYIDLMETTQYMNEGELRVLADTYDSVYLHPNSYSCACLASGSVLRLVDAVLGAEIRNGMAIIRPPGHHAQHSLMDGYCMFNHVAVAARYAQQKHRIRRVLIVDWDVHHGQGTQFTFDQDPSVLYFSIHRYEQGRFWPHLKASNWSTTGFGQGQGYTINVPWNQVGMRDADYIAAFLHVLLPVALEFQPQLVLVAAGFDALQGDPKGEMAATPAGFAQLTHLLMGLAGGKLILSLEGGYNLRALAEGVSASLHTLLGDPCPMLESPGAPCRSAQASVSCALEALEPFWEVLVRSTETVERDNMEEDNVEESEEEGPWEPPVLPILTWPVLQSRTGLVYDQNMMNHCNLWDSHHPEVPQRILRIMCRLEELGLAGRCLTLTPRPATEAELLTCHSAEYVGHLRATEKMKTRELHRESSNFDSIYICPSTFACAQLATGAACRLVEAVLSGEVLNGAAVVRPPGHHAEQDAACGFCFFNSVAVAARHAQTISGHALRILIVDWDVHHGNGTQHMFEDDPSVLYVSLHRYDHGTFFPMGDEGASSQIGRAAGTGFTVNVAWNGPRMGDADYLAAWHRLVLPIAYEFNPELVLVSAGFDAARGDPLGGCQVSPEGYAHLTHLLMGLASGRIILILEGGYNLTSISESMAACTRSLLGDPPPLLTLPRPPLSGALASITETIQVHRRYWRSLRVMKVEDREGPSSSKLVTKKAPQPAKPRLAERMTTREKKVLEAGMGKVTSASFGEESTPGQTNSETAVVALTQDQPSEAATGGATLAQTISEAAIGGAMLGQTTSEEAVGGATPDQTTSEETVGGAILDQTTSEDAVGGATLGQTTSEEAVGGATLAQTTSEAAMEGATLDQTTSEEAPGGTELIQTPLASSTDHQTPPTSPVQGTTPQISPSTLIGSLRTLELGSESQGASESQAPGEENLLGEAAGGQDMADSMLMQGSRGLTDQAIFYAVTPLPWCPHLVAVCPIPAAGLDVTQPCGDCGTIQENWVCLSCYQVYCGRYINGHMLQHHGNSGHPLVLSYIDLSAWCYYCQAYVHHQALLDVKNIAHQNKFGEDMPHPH
As to the kind of experiment: HDAC Fluorescent Activity Assay. Particulars: for IC50: symbols ++ / +, read-out: HDAC6 Inhibition Activity (IC50 class); for inhibition at 1 µM: symbols ** / *, read-out: HDAC6 Inhibition Activity (% Inhibition class). The method, then: This protocol is to determine the IC50s or percentage of inhibition values of the test compound against HDACs.
The HDAC Fluorescent Activity Assay is based on the unique Fluorogenic Substrate and Developer combination. […] First, the Fluorogenic Substrate, which comprises an acetylated lysine side chain, is incubated with a purified HDAC enzyme. Deacetylation of the substrate sensitizes the substrate so that, in the second step, treatment with the Developer produces a fluorophore.
Testing compounds were dissolved in 100% DMSO to specific concentration. […]
1. Deliver 2× enzyme in wells of reaction plate except No Enzyme control wells. Add buffer in No En wells.
2. Deliver compounds in 100% DMSO into the enzyme mixture by Acoustic technology (Echo550; nanoliter range). Spin down and pre-incubation.
3. Deliver 2× Substrate Mixture (Fluorogenic HDAC Substrate and co-factor if applicable) in all reaction wells to initiate the reaction. Spin and shake.
4. Incubate for 1-2 hr at 30° C. with seal.
5. Add Developer with Trichostatin A (or TMP269) to stop the reaction and to generate fluorescent color.
6. Fluorescence was read (excitatory, 360; emission, 460) using the EnVision Multilabel
7. Take endpoint reading for analysis after the development reaches plateau.
The percentages of enzyme activity (relative to DMSO controls) and IC50 values were calculated using the GraphPad Prism 4 program based on a sigmoidal dose-response equation.

The next test concerns the target PI3Kβ (Homo sapiens, UniProt P42338). Kind of test: PI3Kβ kinase assay (HTRF). The method, then: (§1) The PIP3 product is detected by displacement of biotin-PIP3 from an energy transfer complex consisting of Europium labeled anti-GST monoclonal antibody, a GST-tagged pleckstrin homology (PH) domain, biotinylated PIP3 and Streptavidin-Allophycocyanin (APC). […] The PIP3 product formed by PI 3-Kinase(h) activity displaces biotin-PIP3 from the complex resulting in a loss of energy transfer, and thus, a decrease in signal.
(§2) First, the kinase reaction with PIP2 substrate is carried out in the presence of ATP, and the reaction is quenched with stop Solution, and then, finally detect by adding Detection Mixture followed by incubation.
(§3) HEPES 50 mM (pH7.0), NaN3 0.02%, BSA 0.01%, Orthovanadate 0.1 mM, 1% DMSO.
(§4) Detection buffer: HEPES 10 mM (pH7.0), BSA 0.02%, KF 0.16 M, EDTA 4 mM.
(§5) 10 μM PIP2 substrate (PI(4,5)P2)
(§6) 10 μM ATP under standard conditions
(§7) 1. Prepare substrate in freshly prepared Reaction Buffer.
(§8) 2. Deliver kinase into the substrate solution and gently mix.
(§9) 3. Deliver compounds in 100% DMSO into the kinase reaction mixture by Acoustic technology (Echo550; nanoliter range), incubate for 10 min at room temperature.
(§10) 4. Deliver ATP into the reaction mixture to initiate the reaction.
(§11) 5. Incubate for 30 min at 30° C.
(§12) 6. Quench the reaction with Stop Solution.
(§13) 7. Add Detection Mixture, and incubate for overnight.
(§14) The emission ratio is converted into μM PIP3 production based on PIP3 standard curves.
(§15) The nonlinear regression to obtain the standard curve and IC50 values are performed using Graphpad Prism software.
(In TR-FRET formats the signal depends on donor and acceptor labels being close together.)

The next test has as its target PI3Kα (Homo sapiens, UniProt P42336). As to the kind of experiment: PI3Kα kinase assay (HTRF). Here is the method: as §1, §2, §3, §4, §5, §6, §7, §8, §9, §10, §11, §12, §13, §14, §15
For the next test, the target named is PI3Kδ (Homo sapiens, UniProt O00329). As to the kind of experiment: PI3Kδ kinase assay (HTRF). Particulars: for inhibition at 1 µM: symbols ** / *, read-out: PI3Kδ Inhibition Activity (% Inhibition class); for IC50: symbols ++ / +, read-out: PI3Kδ Inhibition Activity (IC50 class). Here is the method:
as §1, §2, §3, §4, §5, §6, §7, §8, §9, §10, §11, §12, §13, §14, §15

The next test concerns the target PI3Kγ (Homo sapiens, UniProt P48736). As to the kind of experiment: PI3Kγ kinase assay (HTRF). The method, then:
as §1, §2, §3, §4, §5, §6, §7, §8, §9, §10, §11, §12, §13, §14, §15

PI3Kδ, sequence (O00329 whole entry): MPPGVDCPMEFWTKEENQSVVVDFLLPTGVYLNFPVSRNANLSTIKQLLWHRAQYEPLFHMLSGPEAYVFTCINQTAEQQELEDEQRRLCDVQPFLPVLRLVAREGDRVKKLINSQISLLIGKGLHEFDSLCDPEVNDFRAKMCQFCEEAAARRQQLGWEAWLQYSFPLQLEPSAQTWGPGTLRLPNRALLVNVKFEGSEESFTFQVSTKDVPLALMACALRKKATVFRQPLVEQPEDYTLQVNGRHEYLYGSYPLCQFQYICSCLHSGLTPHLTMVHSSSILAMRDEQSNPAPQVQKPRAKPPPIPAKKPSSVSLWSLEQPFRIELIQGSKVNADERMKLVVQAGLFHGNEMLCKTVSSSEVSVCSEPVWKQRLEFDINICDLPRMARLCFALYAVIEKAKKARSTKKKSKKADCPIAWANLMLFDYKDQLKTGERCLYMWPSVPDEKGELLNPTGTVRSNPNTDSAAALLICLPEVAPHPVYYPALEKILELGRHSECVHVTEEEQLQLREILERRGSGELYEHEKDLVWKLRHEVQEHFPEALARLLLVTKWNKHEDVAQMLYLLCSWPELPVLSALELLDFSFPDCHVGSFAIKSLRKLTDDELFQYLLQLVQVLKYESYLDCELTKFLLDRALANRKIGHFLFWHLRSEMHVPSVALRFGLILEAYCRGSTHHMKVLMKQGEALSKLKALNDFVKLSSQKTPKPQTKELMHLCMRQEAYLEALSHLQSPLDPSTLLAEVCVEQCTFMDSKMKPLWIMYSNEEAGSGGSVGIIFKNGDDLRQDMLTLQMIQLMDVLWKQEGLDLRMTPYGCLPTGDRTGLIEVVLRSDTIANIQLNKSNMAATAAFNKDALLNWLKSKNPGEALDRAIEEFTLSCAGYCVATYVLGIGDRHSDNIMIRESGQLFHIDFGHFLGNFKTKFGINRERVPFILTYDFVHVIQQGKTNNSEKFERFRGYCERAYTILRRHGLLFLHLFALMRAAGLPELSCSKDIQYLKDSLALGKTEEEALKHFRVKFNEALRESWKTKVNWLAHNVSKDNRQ
PI3Kδ, sequence (P27986 whole entry partner): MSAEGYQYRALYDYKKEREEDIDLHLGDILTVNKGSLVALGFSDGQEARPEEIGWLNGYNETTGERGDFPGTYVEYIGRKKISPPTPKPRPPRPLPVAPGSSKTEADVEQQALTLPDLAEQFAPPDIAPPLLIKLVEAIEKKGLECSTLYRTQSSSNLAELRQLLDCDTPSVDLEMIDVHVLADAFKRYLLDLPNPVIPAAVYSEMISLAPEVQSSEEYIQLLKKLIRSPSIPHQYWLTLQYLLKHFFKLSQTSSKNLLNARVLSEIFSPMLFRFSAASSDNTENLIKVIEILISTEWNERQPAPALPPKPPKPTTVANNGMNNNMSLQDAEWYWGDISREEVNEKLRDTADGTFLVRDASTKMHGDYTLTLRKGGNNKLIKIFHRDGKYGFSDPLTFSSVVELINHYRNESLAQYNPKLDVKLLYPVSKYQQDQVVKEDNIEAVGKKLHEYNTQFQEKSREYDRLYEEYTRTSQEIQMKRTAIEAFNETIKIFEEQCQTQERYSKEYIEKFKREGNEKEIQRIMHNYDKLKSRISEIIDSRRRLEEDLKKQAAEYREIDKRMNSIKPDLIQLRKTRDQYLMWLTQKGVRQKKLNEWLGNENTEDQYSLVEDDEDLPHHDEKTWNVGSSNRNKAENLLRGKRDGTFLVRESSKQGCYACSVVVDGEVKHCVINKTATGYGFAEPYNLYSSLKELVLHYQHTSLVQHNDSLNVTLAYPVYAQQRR
PI3Kγ, sequence (P48736 whole entry): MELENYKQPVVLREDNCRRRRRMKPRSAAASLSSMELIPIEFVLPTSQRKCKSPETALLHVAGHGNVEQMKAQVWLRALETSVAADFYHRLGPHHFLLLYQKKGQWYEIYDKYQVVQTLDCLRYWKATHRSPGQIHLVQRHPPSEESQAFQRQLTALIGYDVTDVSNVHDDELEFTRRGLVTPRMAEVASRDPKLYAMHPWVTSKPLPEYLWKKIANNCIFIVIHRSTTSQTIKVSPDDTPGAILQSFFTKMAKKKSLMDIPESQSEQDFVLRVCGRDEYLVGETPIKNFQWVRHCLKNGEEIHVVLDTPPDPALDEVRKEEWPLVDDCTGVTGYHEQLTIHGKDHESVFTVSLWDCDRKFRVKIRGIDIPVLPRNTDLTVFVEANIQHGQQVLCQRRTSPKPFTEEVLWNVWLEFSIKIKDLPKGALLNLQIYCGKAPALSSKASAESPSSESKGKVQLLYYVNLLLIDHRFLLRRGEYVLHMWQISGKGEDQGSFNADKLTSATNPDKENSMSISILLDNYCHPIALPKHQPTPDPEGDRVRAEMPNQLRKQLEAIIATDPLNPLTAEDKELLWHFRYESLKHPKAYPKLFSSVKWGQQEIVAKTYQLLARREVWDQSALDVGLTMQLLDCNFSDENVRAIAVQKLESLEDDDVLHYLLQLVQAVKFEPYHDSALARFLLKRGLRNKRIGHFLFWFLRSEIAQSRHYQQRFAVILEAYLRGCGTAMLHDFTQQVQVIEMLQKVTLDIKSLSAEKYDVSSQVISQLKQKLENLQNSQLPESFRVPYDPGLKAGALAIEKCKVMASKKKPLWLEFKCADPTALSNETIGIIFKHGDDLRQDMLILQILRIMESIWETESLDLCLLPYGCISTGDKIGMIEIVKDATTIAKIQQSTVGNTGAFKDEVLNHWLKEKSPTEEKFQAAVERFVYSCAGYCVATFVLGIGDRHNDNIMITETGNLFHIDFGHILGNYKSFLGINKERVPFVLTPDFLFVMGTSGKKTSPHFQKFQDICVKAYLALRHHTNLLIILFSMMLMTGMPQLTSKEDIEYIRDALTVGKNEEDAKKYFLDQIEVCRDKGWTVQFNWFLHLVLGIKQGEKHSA
PI3Kα, sequence (P42336 whole entry): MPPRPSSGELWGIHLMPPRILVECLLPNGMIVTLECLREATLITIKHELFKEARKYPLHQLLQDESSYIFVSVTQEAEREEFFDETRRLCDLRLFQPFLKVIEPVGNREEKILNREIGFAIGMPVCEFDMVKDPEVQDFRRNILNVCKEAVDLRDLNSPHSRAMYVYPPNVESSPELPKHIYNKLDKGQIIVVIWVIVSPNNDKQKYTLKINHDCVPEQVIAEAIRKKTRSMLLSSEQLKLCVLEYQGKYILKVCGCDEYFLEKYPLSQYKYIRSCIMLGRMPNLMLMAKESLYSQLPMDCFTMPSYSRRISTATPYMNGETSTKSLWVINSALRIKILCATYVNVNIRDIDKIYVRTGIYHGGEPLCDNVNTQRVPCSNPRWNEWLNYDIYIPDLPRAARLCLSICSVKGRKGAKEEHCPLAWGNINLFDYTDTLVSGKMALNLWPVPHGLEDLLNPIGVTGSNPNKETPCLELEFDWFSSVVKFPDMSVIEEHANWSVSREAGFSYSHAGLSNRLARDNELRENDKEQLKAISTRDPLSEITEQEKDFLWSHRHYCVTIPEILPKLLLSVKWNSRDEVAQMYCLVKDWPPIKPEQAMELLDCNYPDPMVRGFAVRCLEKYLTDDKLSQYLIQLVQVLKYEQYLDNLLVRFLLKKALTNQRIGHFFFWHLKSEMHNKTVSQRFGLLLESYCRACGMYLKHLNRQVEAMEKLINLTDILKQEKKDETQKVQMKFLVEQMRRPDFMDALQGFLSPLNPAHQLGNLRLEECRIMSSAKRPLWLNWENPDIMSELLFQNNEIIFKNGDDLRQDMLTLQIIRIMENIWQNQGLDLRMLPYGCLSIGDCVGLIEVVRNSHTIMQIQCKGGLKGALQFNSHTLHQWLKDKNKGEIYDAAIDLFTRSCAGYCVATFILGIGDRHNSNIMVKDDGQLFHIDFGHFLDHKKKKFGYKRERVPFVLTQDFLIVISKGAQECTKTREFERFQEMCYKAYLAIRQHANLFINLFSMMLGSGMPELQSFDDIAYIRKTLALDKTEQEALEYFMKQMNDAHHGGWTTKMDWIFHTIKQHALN
PI3Kα, sequence (P27986 whole entry partner): as the sequence (P27986 whole entry partner) above
PI3Kβ, sequence (P42338 whole entry): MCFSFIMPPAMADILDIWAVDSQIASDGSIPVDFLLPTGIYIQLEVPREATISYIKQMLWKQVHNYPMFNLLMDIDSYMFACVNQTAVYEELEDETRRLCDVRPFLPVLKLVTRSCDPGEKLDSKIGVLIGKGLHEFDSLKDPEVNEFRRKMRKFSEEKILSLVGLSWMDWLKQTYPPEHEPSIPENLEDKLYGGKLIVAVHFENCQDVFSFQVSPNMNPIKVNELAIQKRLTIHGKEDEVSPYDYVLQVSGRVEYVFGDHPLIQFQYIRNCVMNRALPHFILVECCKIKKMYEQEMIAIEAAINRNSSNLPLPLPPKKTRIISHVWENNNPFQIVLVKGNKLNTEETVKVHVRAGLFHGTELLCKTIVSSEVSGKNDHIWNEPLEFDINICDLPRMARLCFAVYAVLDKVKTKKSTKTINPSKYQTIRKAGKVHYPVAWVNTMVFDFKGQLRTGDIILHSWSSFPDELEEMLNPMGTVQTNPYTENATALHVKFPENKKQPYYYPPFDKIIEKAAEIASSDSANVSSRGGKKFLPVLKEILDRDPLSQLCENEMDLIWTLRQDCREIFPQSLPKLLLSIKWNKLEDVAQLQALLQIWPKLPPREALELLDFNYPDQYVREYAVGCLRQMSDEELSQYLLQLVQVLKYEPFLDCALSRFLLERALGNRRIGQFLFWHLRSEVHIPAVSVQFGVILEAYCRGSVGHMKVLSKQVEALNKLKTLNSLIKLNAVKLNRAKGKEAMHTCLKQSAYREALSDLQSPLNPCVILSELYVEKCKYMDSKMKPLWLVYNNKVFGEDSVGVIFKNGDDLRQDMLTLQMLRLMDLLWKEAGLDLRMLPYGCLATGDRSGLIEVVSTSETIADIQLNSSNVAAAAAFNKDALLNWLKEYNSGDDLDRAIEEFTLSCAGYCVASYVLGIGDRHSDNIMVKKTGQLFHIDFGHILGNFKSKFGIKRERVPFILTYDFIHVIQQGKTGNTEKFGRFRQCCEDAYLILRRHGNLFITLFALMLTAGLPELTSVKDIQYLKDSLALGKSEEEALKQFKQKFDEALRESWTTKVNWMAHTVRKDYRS
PI3Kβ, sequence (P27986 whole entry partner): as the sequence (P27986 whole entry partner) above

Usually IC50 stands for the concentration that gives 50% inhibition. On to `O=C(CCCCNc1cccc2nc(C3CC3)n(-c3ccccc3)c(=O)c12)NO` [LXIII, 5-((2-cyclopropyl-4-oxo-3-phenyl-3,4-dihydroquinazolin-5-yl)amino)-N-hydroxypentanamide], for which the IC50 at HDAC6 was over 100 nM.

One may read the inhibition as the relative decrease from the control value, in per cent. As for `CC[C@H](Nc1ncnc2[nH]cnc12)c1nc2cccc(CC(=O)c3ccc(C(=O)Nc4ccccc4N)cc3)c2c(=O)n1-c1ccccc1` [XXIII, (S)-4-(2-(2-(1-((9H-purin-6-yl)amino)propyl)-4-oxo-3-phenyl-3,4-dihydroquinazolin-5-yl)acetyl)-N-(2-aminophenyl)benzamide], the inhibition at 1 µM is under 85% on PI3Kβ; under 85% against PI3Kα; under 90% at HDAC6; over 90% on PI3Kδ; under 85% on PI3Kγ.

With `CC[C@H](Nc1nc(N)nc(C)c1C#N)c1nc2cccc(N(C)Cc3ccc(C(=O)NO)cc3)c2c(=O)n1-c1ccccc1` [LI, (S)-4-(((2-(1-((2-amino-5-cyano-6-methylpyrimidin-4-yl)amino)propyl)-4-oxo-3-phenyl-3,4-dihydroquinazolin-5-yl)(methyl)amino)methyl)-N-hydroxybenzamide], the IC50 at HDAC6 and on PI3Kδ was under 100 nM throughout.

`CC[C@H](Nc1ncnc(N)c1C(N)=O)c1nc2cccc(NCc3ccc(C(=O)NO)cn3)c2c(=O)n1-c1ccccc1` [LVII, (S)-4-amino-6-((1-(5-(((5-(hydroxycarbamoyl)pyridin-2-yl)methyl)amino)-4-oxo-3-phenyl-3,4-dihydroquinazolin-2-yl)propyl)amino)pyrimidine-5-carboxamide]: the IC50 was under 100 nM at HDAC6 and over 100 nM on PI3Kδ.

On to `CC[C@H](Nc1ncnc2[nH]cnc12)c1nc2cccc(CNC(=O)c3cccc(B(O)O)c3)c2c(=O)n1-c1ccccc1` [XXV, (S)-(3-(((2-(1-((9H-purin-6-yl)amino)propyl)-4-oxo-3-phenyl-3,4-dihydroquinazolin-5-yl)methyl)carbamoyl)phenyl)boronic acid], for which the inhibition at 1 µM against PI3Kβ is under 85%; against PI3Kα, under 85%; at HDAC6, under 90%; on PI3Kδ, over 90%; against PI3Kγ, under 85%.

With `O=C(NO)c1ccc(CNc2cccc3nc(C4CC4)n(-c4ccccc4)c(=O)c23)cc1` [LXI, 4-(((2-cyclopropyl-4-oxo-3-phenyl-3,4-dihydroquinazolin-5-yl)amino)methyl)-N-hydroxybenzamide], on HDAC6, the IC50 was under 100 nM.

In the case of `Cc1nc2cccc(NCCCCC(=O)NO)c2c(=O)n1-c1ccccc1` [LXII, N-hydroxy-5-((2-methyl-4-oxo-3-phenyl-3,4-dihydroquinazolin-5-yl)amino)pentanamide], the IC50 at HDAC6 was over 100 nM.

For `CC[C@H](Nc1ncnc2[nH]cnc12)c1nc(N2CCN(c3nc(C(=O)NO)cs3)CC2)c2ccccc2n1` [XXXII, (S)-2-(4-(2-(1-((9H-purin-6-yl)amino)propyl)quinazolin-4-yl)piperazin-1-yl)-N-hydroxythiazole-4-carboxamide], the inhibition at 1 µM on PI3Kβ was under 85%; on PI3Kα, under 85%; at HDAC6, under 90%; at PI3Kδ, under 90%; against PI3Kγ, under 85%.

As for `CC[C@H](Nc1ncnc2[nH]cnc12)c1nc2cccc(-c3cnc(C(=O)NO)nc3)c2c(=O)n1-c1ccccc1` [XXII, (S)-5-(2-(1-((9H-purin-6-yl)amino)propyl)-4-oxo-3-phenyl-3,4-dihydroquinazolin-5-yl)-N-hydroxypyrimidine-2-carboxamide], the inhibition at 1 µM on PI3Kβ is under 85%; against PI3Kα, under 85%; on HDAC6, under 90%; at PI3Kδ, over 90%; on PI3Kγ, under 85%.

As for `CC[C@H](Nc1ncnc2[nH]cnc12)c1nc(-c2ccc(C(=O)NO)cc2)c2ccccc2n1` [XXXIV, (S)-4-(2-(1-((9H-purin-6-yl)amino)propyl)quinazolin-4-yl)-N-hydroxybenzamide], the inhibition at 1 µM is under 85% against PI3Kβ; under 85% against PI3Kα; over 90% on HDAC6; under 90% on PI3Kδ; under 85% against PI3Kγ.

Turning to `CC[C@H](Nc1ncnc2[nH]cnc12)c1nc2cccc(NCc3ccc(C(=O)N(C)O)cc3)c2c(=O)n1-c1ccccc1` [XXVII, (S)-4-(((2-(1-((9H-purin-6-yl)amino)propyl)-4-oxo-3-phenyl-3,4-dihydroquinazolin-5-yl)amino)methyl)-N-hydroxy-N-methylbenzamide], on HDAC6, the IC50 was over 100 nM.

As for `CC[C@H](Nc1ncnc2[nH]cnc12)c1nc(NCCCCCC(=O)NO)c2ccccc2n1` [XXXI, (S)-6-((2-(1-((9H-purin-6-yl)amino)propyl)quinazolin-4-yl)amino)-N-hydroxyhexanamide], the IC50 on HDAC6 is under 100 nM; on PI3Kδ, over 100 nM.

As for `CC[C@H](Nc1nc(N)nc(C)c1C#N)c1nc2cccc(N3CCC(CCC(=O)NO)CC3)c2c(=O)n1-c1ccccc1` [Compound L, (S)-3-(1-(2-(1-((2-amino-5-cyano-6-methylpyrimidin-4-yl)amino)propyl)-4-oxo-3-phenyl-3,4-dihydroquinazolin-5-yl)piperidin-4-yl)-N-hydroxypropanamide], the IC50 on HDAC6 and at PI3Kδ was under 100 nM throughout.

In the case of `CC[C@H](Nc1nc(N)nc(C)c1C#N)c1nc2cccc(C#CCCCC(=O)NO)c2c(=O)n1-c1ccccc1` [LVI, (S)-6-(2-(1-((2-amino-5-cyano-6-methylpyrimidin-4-yl)amino)propyl)-4-oxo-3-phenyl-3,4-dihydroquinazolin-5-yl)-N-hydroxyhex-5-ynamide], the inhibition at 1 µM on HDAC6 is over 90%. Besides, the IC50 on PI3Kδ was under 100 nM.
